Data on one compound can be found in US10059674B2, “Design, synthesis, and biological evaluation of 1-methyl-1, 4-dihyrdoindeno[1,2-C]pyrazole analogues as potential anticaner agents targeting tubulin colchicine binding site” (ACT PHARMA CO., LTD., priority 2016, dated 2018).

Where two headings read alike, the source gives them in different places.

The nature of series [1]: Liver microsomal metabolism stability test. The conditions noted are these: for Remainder: mouse liver microsomes.
The conditions of series [2]: dog, microsomes, 1 µM, pH 7.47.
For series [3] the following is noted: human, microsomes, 1 µM, pH 7.47.
Series [4] in a line: in vitro. Particulars: monkey, microsomes, pH 7.47.

The half-life is the time needed for the level to fall by half in the phase considered. A low value points to fast loss. For orientation: microsomal CLint means a measure of how fast metabolising enzymes remove a compound, apart from limits set by blood flow. A high value points to rapid turnover. Consider `CCOc1cccc(Nc2nn(C)c3c2Cc2cc(OCC)c(OCC(N)=O)cc2-3)c1` [LL-01], for which, in series [1] (mouse), the “metabolism in the liver microsomes (in words)” value is on record as “moderate”. In addition, the Remainder in series [1] (incubation time 0 min) was 100.00%; in series [1] (incubation time 10 min), 87.76%; in series [1] (incubation time 30 min), 63.76%; in series [1] (incubation time 90 min) it was 32.23%; in series [2] (0 h) it was 100.00%; in series [2] (10 min), 74.20%. The Remainder in series [2] (0.5 h) was 38.61%; in series [2] (1.5 h), 7.93%; in series [3] (0 h) it was 100.00%; in series [3] (10 min) it was 78.76%; in series [3] (0.5 h), 56.18%; in series [3] (1.5 h), 23.87%. Further, the half-life at 1 µM in series [4] amounted to 21.6 min. For the same compound, in series [4], the microsomal CLint at 1 µM is 64.2 µL/min/mg.
